The source of these data is PubChem BioAssay AID1195 (EPA DSSTox, 2008).

Values joined by “and” are separate entries in the source; they are usually repeats but may differ in a detail not shown here. Identical values can stand only once.

In the data set the test system is human maximum recommended daily dose, FDA database. Briefly: DSSTox (FDAMDD) FDA Maximum (Recommended) Daily Dose Database. To be noted: hits give low values. A digest of the protocol:
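MRDD values come from clinical trials with daily oral dosing, usually for 3–12 months, for the average adult, in mg/day converted to mg/kg-bw/day assuming 60 kg. Antineoplastic mg/m2 doses are divided by 37. Activity score maps log10(1/MRDD mmol) onto 1–100.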

Setting [1] is: TherapeuticCategory: antineoplastic.
[2] abbreviates: TherapeuticCategory: antibacterial.
The mark [3] stands for this setting: TherapeuticCategory: anticholinergic.
Setting [4] is: TherapeuticCategory: sedative, hypnotic.
Setting [5] is: TherapeuticCategory: antidepressant.
Where [6] appears, read: TherapeuticCategory: diagnostic aid.
Setting [7] is: TherapeuticCategory: antihypertensive.
[8] abbreviates: TherapeuticCategory: anthelmintic.
Setting [9] is: TherapeuticCategory: antihistaminic.

For `OC[C@H]1OC(O)[C@H](O)[C@@H](O)[C@@H]1O` (stereo partly specified), under “TherapeuticCategory: fluid and nutrient replenisher”, the maximum recommended daily dose (mmol/kg-bw/day) is 0.555.
As to `CC(C)(C)NCC(O)c1cc(O)cc(O)c1` (stereo unspecified), the maximum recommended daily dose (mmol/kg-bw/day) (TherapeuticCategory: bronchodilator, tocolytic) is 0.00111.
For `CC[C@@]1(O)C[C@H](O[C@H]2C[C@H](N(C)C)[C@H](O[C@H]3C[C@H](O)[C@H](O[C@H]4CCC(=O)[C@H](C)O4)[C@H](C)O3)[C@H](C)O2)c2c(cc3c(c2O)C(=O)c2c(O)cccc2C3=O)[C@H]1C(=O)OC`, the maximum recommended daily dose (mmol/kg-bw/day) under setting [1] is 0.00333.
Take `C[C@H](N)Cc1ccccc1`: the maximum recommended daily dose (mmol/kg-bw/day) (TherapeuticCategory: CNS stimulant, anorexic) was 0.0074.
As to `Nc1ccc(S(=O)(=O)c2ccc(N)cc2)cc1`, the maximum recommended daily dose (mmol/kg-bw/day) (TherapeuticCategory: antibacterial, dermatitis herpetiformis suppressant) is 0.0201.
Turning to `CN[C@@H]1[C@H](O[C@H]2[C@H](O[C@H]3[C@H](O)[C@@H](O)[C@H](N=C(N)N)[C@@H](O)[C@@H]3N=C(N)N)O[C@@H](C)[C@]2(O)C=O)O[C@@H](CO)[C@H](O[C@@H]2O[C@H](CO)[C@@H](O)[C@H](O)[C@@H]2O)[C@H]1O`, under setting [2], the maximum recommended daily dose (mmol/kg-bw/day) was 0.0269.
With `COC(=O)C1=C(C)NC(C)=C(C(=O)OCCN(C)Cc2ccccc2)C1c1cccc([N+](=O)[O-])c1` (stereo unspecified), for the setting “TherapeuticCategory: antianginal, antihypertensive”, the maximum recommended daily dose (mmol/kg-bw/day) is 0.00417.
Turning to `CN1[C@@H]2CC[C@H]1CC(OC(c1ccccc1)c1ccccc1)C2` (stereo partly specified), the maximum recommended daily dose (mmol/kg-bw/day) under setting [3] is 0.000325.
On the same count and under the same terms, to `OC(CCN1CCCC1)(c1ccccc1)C1CCCCC1` (stereo unspecified) belongs 0.00116.
In the case of `CNC(C)(C)Cc1ccccc1`, where the note is “TherapeuticCategory: adrenergic”, the maximum recommended daily dose (mmol/kg-bw/day) is 0.00613.
As for `C[C@](N)(Cc1ccc(O)cc1)C(=O)O`, the maximum recommended daily dose (mmol/kg-bw/day) (TherapeuticCategory: tyrosine hydroxylase inhibitor) was 0.342.
For the compound `Cc1ccc(N(CC2=NCCN2)c2cccc(O)c2)cc1`, the maximum recommended daily dose (mmol/kg-bw/day) (TherapeuticCategory: antihypertensive, diagnostic aid) was 0.000594.
As to `CC(CN1CC(=O)NC(=O)C1)N1CC(=O)NC(=O)C1` (stereo unspecified), the maximum recommended daily dose (mmol/kg-bw/day) under setting [1] was 0.0155.
For the compound `O=C1CCC(N2C(=O)c3ccccc3C2=O)C(=O)N1` (stereo unspecified), the maximum recommended daily dose (mmol/kg-bw/day) under setting [4] was 0.0258.
Regarding `O=C(O)CCCc1ccc(N(CCCl)CCCl)cc1`, the maximum recommended daily dose (mmol/kg-bw/day) under setting [1] was 0.000657.
On to `CCN(C)C(=O)Oc1cccc([C@H](C)N(C)C)c1`, for which, for the setting “TherapeuticCategory: cholinesterase inhibitor”, the maximum recommended daily dose (mmol/kg-bw/day) was 0.000799.
`COc1ccc2[nH]cc(CCNC(C)=O)c2c1`: the maximum recommended daily dose (mmol/kg-bw/day) (TherapeuticCategory: antioxidant) was 0.000359.
Consider `CCc1nn(CCCN2CCN(c3cccc(Cl)c3)CC2)c(=O)n1CC`, for which the maximum recommended daily dose (mmol/kg-bw/day) under setting [5] was 0.00662.
With `CC[N+](C)(CC)CCOC(=O)C1c2ccccc2Oc2ccccc21`, the maximum recommended daily dose (mmol/kg-bw/day) under setting [3] is 0.0159.
Turning to `CC(=O)NS(=O)(=O)c1cc(N)ccc1S(=O)(=O)c1ccc(N)cc1`, the maximum recommended daily dose (mmol/kg-bw/day) under setting [2] is 0.17.
Consider `COCC(=O)Nc1c(I)c(C(=O)NCC(O)CO)c(I)c(C(=O)N(C)CC(O)CO)c1I` (stereo unspecified), for which the maximum recommended daily dose (mmol/kg-bw/day) under setting [6] was 0.126.
Turning to `COc1cc2nc(N3CCN(C(=O)C4CCCO4)CC3)nc(N)c2cc1OC` (stereo unspecified), under setting [7], the maximum recommended daily dose (mmol/kg-bw/day) is 0.00086.
As for `CC(=O)Oc1ccc(C2(c3ccc(OC(C)=O)cc3)C(=O)Nc3ccccc32)cc1`, the maximum recommended daily dose (mmol/kg-bw/day) (TherapeuticCategory: cathartic) is 0.00208.
For `CO/N=C(/C(=O)N[C@@H]1C(=O)N2C(C(=O)O)=C(COC(N)=O)CS[C@H]12)c1ccco1`, the maximum recommended daily dose (mmol/kg-bw/day) under setting [2] is 0.0394.
Consider `O=C(O)C1CSCN1` (stereo unspecified), for which the maximum recommended daily dose (mmol/kg-bw/day) (TherapeuticCategory: choleretic) is 0.0751.
Regarding `C[N+](C)(CCOc1ccccc1)Cc1ccccc1`, the maximum recommended daily dose (mmol/kg-bw/day) under setting [8] was 0.163 and 0.094.
Regarding `O=C(OC1CC2CCC(C1)[N+]21CCCC1)C(O)(c1ccccc1)c1ccccc1` (stereo unspecified), the maximum recommended daily dose (mmol/kg-bw/day) (TherapeuticCategory: antispasmodic) is 0.000467.
For the compound `CCCC(CCC)C(=O)OC1C[C@H]2CC[C@@H](C1)[N+]2(C)C` (stereo partly specified), under setting [3], the maximum recommended daily dose (mmol/kg-bw/day) is 0.0069.
As to `NC(=O)N1c2ccccc2C=Cc2ccccc21`, the maximum recommended daily dose (mmol/kg-bw/day) (TherapeuticCategory: analgesic, anticonvulsant) was 0.113.
For `CC(C)(CO)[C@@H](O)C(=O)NCCC(=O)O`, the maximum recommended daily dose (mmol/kg-bw/day) (TherapeuticCategory: vitamin) is 0.000534.
With `CCCN[C@H]1CCc2nc(N)sc2C1`, the maximum recommended daily dose (mmol/kg-bw/day) (TherapeuticCategory: antiparkinsonian, dopamine receptor agonist) is 0.000473.
Regarding `CCC(C)(C)C(=O)O[C@H]1C[C@@H](C)C=C2C=C[C@H](C)[C@H](CC[C@@H]3C[C@@H](O)CC(=O)O3)[C@H]21`, the maximum recommended daily dose (mmol/kg-bw/day) (TherapeuticCategory: antihyperlipoproteinemic) was 0.00159.
For the compound `N[C@@H](C(=O)N[C@@H]1C(=O)N2C(C(=O)O)=C(Cl)CC[C@H]12)c1ccccc1`, under setting [2], the maximum recommended daily dose (mmol/kg-bw/day) was 0.0181.
For the compound `CCCSc1ccc2nc(NC(=O)OC)[nH]c2c1`, the maximum recommended daily dose (mmol/kg-bw/day) under setting [8] is 0.0501.
Regarding `COc1ccc(CCN2CCC(Nc3nc4ccccc4n3Cc3ccc(F)cc3)CC2)cc1`, the maximum recommended daily dose (mmol/kg-bw/day) (TherapeuticCategory: antiallergic, antiarrhythmic) is 0.000364.
For the compound `CN1CCC(=C2c3ccccc3CCc3cccnc32)CC1`, the maximum recommended daily dose (mmol/kg-bw/day) under setting [9] was 0.000115.
Take `CCCC1C(=O)N2C(N(C)C)=Nc3ccc(C)cc3N2C1=O` (stereo unspecified): the maximum recommended daily dose (mmol/kg-bw/day) (TherapeuticCategory: analgesic, anti inflammatory) was 0.0892.
Consider `Cc1cc2c(OCC(CNC(C)(C)C)OC(=O)c3ccccc3)cccc2[nH]1` (stereo unspecified), for which the maximum recommended daily dose (mmol/kg-bw/day) under setting [7] was 4.39e-05.
`C[C@@H](N)[C@@H](O)c1ccccc1`: the maximum recommended daily dose (mmol/kg-bw/day) (TherapeuticCategory: decongestant, anorexic) is 0.0198.
On to `CCCCc1ccc(C(=O)O)nc1`, for which, under “TherapeuticCategory: none”, the maximum recommended daily dose (mmol/kg-bw/day) was 0.0418.
Regarding `CC(CN1c2ccccc2Sc2ccccc21)N(C)C` (stereo unspecified), under setting [9], the maximum recommended daily dose (mmol/kg-bw/day) is 0.00587.
For `CC(C)(C)NC(=O)[C@H]1CC[C@H]2[C@@H]3CC[C@H]4NC(=O)C=C[C@]4(C)[C@H]3CC[C@]12C`, where the note is “TherapeuticCategory: prostatic hypertrophy treatment”, the maximum recommended daily dose (mmol/kg-bw/day) is 0.000224.
`COC(=O)CCc1ccc(OCC(O)CNC(C)C)cc1` (stereo unspecified): the maximum recommended daily dose (mmol/kg-bw/day) (TherapeuticCategory: antiarrhythmic) is 0.000677.
As to `CCn1cc(C(=O)O)c(=O)c2ccc(C)nc21`, under setting [2], the maximum recommended daily dose (mmol/kg-bw/day) was 0.287.
Regarding `CCN(CC)CCOCCOC(=O)C1(c2ccccc2)CCCC1`, under “TherapeuticCategory: antitussive”, the maximum recommended daily dose (mmol/kg-bw/day) was 0.006.
Turning to `Cc1cc(=O)n(-c2ccccc2)n1C` (tested in a mixture with another compound), the maximum recommended daily dose (mmol/kg-bw/day) under setting [4] is 0.0626.
With `CN1C(=O)C(O)N=C(c2ccccc2)c2cc(Cl)ccc21` (stereo unspecified), the maximum recommended daily dose (mmol/kg-bw/day) under setting [4] is 0.000831.
Consider `O[C@H]([C@H](O)[C@@H](O)CBr)[C@H](O)CBr`, for which the maximum recommended daily dose (mmol/kg-bw/day) under setting [1] was 0.0158.
Same read-out and setting: in the case of `S=c1nc[nH]c2nc[nH]c12` it was 0.0164.
Regarding `CCC(Br)(CC)C(=O)NC(N)=O`, the maximum recommended daily dose (mmol/kg-bw/day) under setting [4] was 0.0704.
Take `CN(Cc1cc(Br)cc(Br)c1N)C1CCCCC1`: the maximum recommended daily dose (mmol/kg-bw/day) (TherapeuticCategory: expectorant, mucolytic) is 0.00213.
Consider `C[C@H](O)C(=O)Nc1c(I)c(C(=O)NC(CO)CO)c(I)c(C(=O)NC(CO)CO)c1I`, for which the maximum recommended daily dose (mmol/kg-bw/day) under setting [6] is 0.129.
As for `Cc1onc(-c2c(F)cccc2Cl)c1C(=O)N[C@@H]1C(=O)N2[C@@H]1SC(C)(C)[C@@H]2C(=O)O`, under setting [2], the maximum recommended daily dose (mmol/kg-bw/day) was 0.147.
On to `O=C(CCNNC(=O)c1ccncc1)NCc1ccccc1`, for which, under setting [5], the maximum recommended daily dose (mmol/kg-bw/day) is 0.0112.
Turning to `NC1=NC(=O)C(c2ccccc2)O1` (stereo unspecified), for the setting “TherapeuticCategory: CNS stimulant”, the maximum recommended daily dose (mmol/kg-bw/day) was 0.0107.
Consider `CCOc1ccc(NC(C)=O)cc1`, for which, for the setting “TherapeuticCategory: anticonvulsant, analgesic, antipyretic”, the maximum recommended daily dose (mmol/kg-bw/day) was 0.279.
On to `CCCN(CCC)C(=O)C(CCC(=O)O)NC(=O)c1ccccc1` (stereo unspecified), for which the maximum recommended daily dose (mmol/kg-bw/day) under setting [3] was 0.0798.
With `O=C1C(O)N=C(c2ccccc2F)c2cc(Cl)ccc2N1CCO` (stereo unspecified), the maximum recommended daily dose (mmol/kg-bw/day) under setting [4] was 0.000955.
In the case of `COc1ccc2c3c1O[C@H]1C(=O)CC[C@H]4[C@@H](C2)N(C)CC[C@]314`, the maximum recommended daily dose (mmol/kg-bw/day) (TherapeuticCategory: analgesic) is 0.00251.
In the case of `N[C@@H](C(=O)N[C@@H]1C(=O)N2C(C(=O)O)=C(CSc3cn[nH]n3)CS[C@H]12)c1ccc(O)cc1`, under setting [2], the maximum recommended daily dose (mmol/kg-bw/day) was 0.0361.
Regarding `COc1ccc2c3c1O[C@H]1[C@@H](O)CC[C@H]4[C@@H](C2)N(C)CC[C@@]341`, the maximum recommended daily dose (mmol/kg-bw/day) (TherapeuticCategory: narcotic analgesic, antitussive) is 0.0106.
`O=C(CCBr)N1CCN(C(=O)CCBr)CC1`: the maximum recommended daily dose (mmol/kg-bw/day) under setting [1] was 0.00843.
`CCCCC1C(=O)N(c2ccccc2)N(c2ccccc2)C1=O`: where the note is “TherapeuticCategory: anti inflammatory”, the maximum recommended daily dose (mmol/kg-bw/day) was 0.0324.
Consider `Cc1ccccc1OCC(O)CO` (stereo unspecified), for which, where the note is “TherapeuticCategory: skeletal muscle relaxant”, the maximum recommended daily dose (mmol/kg-bw/day) was 0.274.
On to `O=C(O)C1=C(CSc2nnnn2CS(=O)(=O)O)CS[C@@H]2[C@H](NC(=O)[C@H](O)c3ccccc3)C(=O)N12`, for which the maximum recommended daily dose (mmol/kg-bw/day) under setting [2] was 0.0308.
Turning to `CCCCCCCC/C=C\CCCCCCCC(=O)O`, where the note is “TherapeuticCategory: sclerosing agent”, the maximum recommended daily dose (mmol/kg-bw/day) was 0.242.
For the compound `CC(=O)c1ccc2c(c1)N(CCCN1CCC(CCO)CC1)c1ccccc1S2`, the maximum recommended daily dose (mmol/kg-bw/day) (TherapeuticCategory: antipsychotic) is 0.0065.
As to `CO/N=C(\C(=O)N[C@@H]1C(=O)N2C(C(=O)O)=CCS[C@H]12)c1csc(N)n1`, under setting [2], the maximum recommended daily dose (mmol/kg-bw/day) is 0.261.
Consider `Cc1ncc([N+](=O)[O-])n1CCO`, for which the maximum recommended daily dose (mmol/kg-bw/day) (TherapeuticCategory: antiprotozoal) is 0.195.
For the compound `O=C1CN=C(c2ccccc2Cl)c2cc([N+](=O)[O-])ccc2N1`, the maximum recommended daily dose (mmol/kg-bw/day) (TherapeuticCategory: anticonvulsant) was 0.000421.
Take `O=C(O)c1c(Cl)c(Cl)c(Cl)c(Cl)c1-c1c2cc(I)c(=O)c(I)c-2oc2c(I)c(O)c(I)cc12`: under setting [6], the maximum recommended daily dose (mmol/kg-bw/day) was 0.00197.
